{
  "source": "patent US6656970B2",
  "about": "“Method and compositions for solubilization of pentacyclic triterpenes” (Dabur Research Foundation, priority 2000, dated 2003)",
  "key": {"[1]": {"experiment": "Solubility in individual solvents", "format": "physicochemical", "method": "(§1) The solubility of betulinic acid and its derivatives was determined in various individual solvents. Based on the solubility of betulinic acid in these particular vehicles, it was then attempted to enhance the solubility of betulinic acid by mixing different solvents according to the principles of co-solvency (Spiegel and Noseworthy, 1963, Yalkowsky and Roseman, 1981). Different solvent systems were evaluated to arrive at a suitable relevant stock composition. The stock composition would then be diluted with a final solvent or intravenous solution to yield a working formulation of 0.001-40 mg/ml.\n(§2) Several methods and compositions were evaluated for their ability to solubilize betulinic acid and its derivatives in water miscible, physiologically acceptable vehicles. The solvents that were tried included DMA, dimethylsulfoxide (DMSO), absolute ethanol, glycerin, polyethylene glycols (PEGs) and propylene glycol, in addition to the aqueous diluting fluids normal saline, and 2-25% dextrose in solution."}, "[2]": {"experiment": "Amount of drug dissolved in solvent/co-solvent/solubilizer compositions", "format": "physicochemical", "method": "as §1, §2\nA concentrated solution of betulinic acid or its derivatives was prepared by dissolving 50-200 mg of betulinic acid or its derivatives in 1 ml of DMA. The above stock solution was diluted with PEG (polyethylene glycol, MW 300) in a ratio of 1:4 to a concentration of 10-40 mg/ml.\n(§3) In the following examples one or more co-solvents with a solubilizers or a combination of (solubilizers) was added to keep the drug in solution after diluting with an aqueous intravenous diluting fluid."}, "[3]": {"experiment": "Clarity / precipitation on dilution of the composition with aqueous diluting fluid", "format": "physicochemical", "method": "as §1, §2, §3"}, "[4]": {"tested_on": "cultured human melanoma cells", "conditions": "cited from earlier work"}, "human melanomas": {"tested_on": "human melanomas", "conditions": "cited from earlier work"}, "[5]": {"conditions": "Example 6: DMA 50% v/v, Tween 80 50% w/v"}},
  "data": [
    {"smiles": "C=C(C)[C@@H]1CC[C@]2(C(=O)O)CC[C@]3(C)[C@H](CC[C@@H]4[C@@]5(C)CC[C@H](O)C(C)(C)[C@@H]5CC[C@]43C)[C@@H]12", "note": "[betulinic acid]", "values": [
      {"measurement": "solubility", "setting": "[1]; Absolute ethanol, organic solvent or mixture, Absolute ethanol, varies depending upon the derivative, read-out: SOLUBILITY", "value": "3000 to 10000", "unit": "µg/mL"},
      {"measurement": "solubility", "setting": "[1]; Dimethylsulfoxide (DMSO), organic solvent or mixture, Dimethylsulfoxide (DMSO), read-out: SOLUBILITY", "value": "≤ 100000", "unit": "µg/mL"},
      {"measurement": "solubility", "setting": "[1]; Glycerin", "value": "insoluble"},
      {"measurement": "solubility", "setting": "[1]; N,N-dimethylacetamide (DMA), organic solvent or mixture, N,N Dimethylacetamide (DMA), read-out: SOLUBILITY", "value": "≤ 250000", "unit": "µg/mL"},
      {"measurement": "solubility", "setting": "[1]; Polyethylene glycols (MW 200, 300, 400), organic solvent or mixture, Polyethylene glycols (MW 200, 300, 400), read-out: SOLUBILITY", "value": "< 5000", "unit": "µg/mL"},
      {"measurement": "solubility", "setting": "[1]; Propylene glycol, organic solvent or mixture, Propylene glycol, read-out: SOLUBILITY", "value": "< 5000", "unit": "µg/mL"},
      {"measurement": "solubility", "setting": "[1]; Water", "value": "insoluble"},
      {"measurement": "solubility", "setting": "[1]; most of the aqueous solvents", "value": "insoluble"},
      {"measurement": "drug concentration the composition could dissolve", "setting": "[2]; [5]", "value": "≤ 20000", "unit": "µg/mL"},
      {"measurement": "drug concentration the composition could dissolve", "setting": "[2]; Example 7: Absolute ethanol 20-40% v/v, Tween 80 60-80% w/v", "value": "≤ 20000", "unit": "µg/mL"},
      {"measurement": "drug concentration the composition could dissolve", "setting": "[2]; Example 8: Absolute ethanol 65% v/v, Tween 80 5% w/v, PEG 300 30% v/v", "value": "up to 6 mg/ml"},
      {"measurement": "drug concentration the composition could dissolve", "setting": "[2]; Example 9: Absolute ethanol 35% v/v, Tween 80 15% w/v, PEG 300 50% v/v", "value": "up to 4 mg/ml"},
      {"measurement": "drug concentration that could be dissolved in the compositions", "setting": "[2]; Example 16: DMA 20-50% v/v, PEG 300 20-40% v/v, Tween 80 5-30% w/v", "value": "Up to 22 mg/ml"},
      {"measurement": "drug concentration the compositions could dissolve", "setting": "[2]; Examples 12 and 13: DMA 20% v/v, MYRJ 52 20-30% w/v, Tween 20-50% w/v, with or without PEG 300 40% v/v", "value": "≤ 20000", "unit": "µg/mL"},
      {"measurement": "drug concentration the compositions could dissolve", "setting": "[2]; Examples 14 and 15: DMA 20% v/v, Tween 80 20% w/v, PEG 300 55-57% v/v, Poloxamer 407 3% w/v or Lecithin 5% w/v", "value": "2000 to 15000", "unit": "µg/mL"},
      {"measurement": "solubility", "setting": "[2]; organic solvent or mixture, Examples 10 and 11: DMA 10-20% v/v, Propylene glycol 10-20% v/v, Absolute ethanol 30-35% v/v, Tween 80 35-40% w/v, read-out: concentration range soluble in the system", "value": "2000 to 15000", "unit": "µg/mL"},
      {"measurement": "behaviour on dilution with the aqueous diluting fluid", "setting": "[3]; Example 3: 50 mg drug, DMA 20% v/v, PEG 300 80% v/v, even at concentrations as low as 0.001-0.1 mg/ml", "value": "immediate precipitation"},
      {"measurement": "behaviour on dilution with the aqueous diluting fluid", "setting": "[3]; Example 3: 200 mg drug, DMA 20% v/v, PEG 300 80% v/v", "value": "immediately precipitated out"},
      {"measurement": "behaviour on dilution with aqueous diluting fluid", "setting": "[3]; Example 4: 50 mg drug, DMA 50% v/v, PEG 300 50% v/v, diluted with 2-25% dextrose or normal saline", "value": "gave a viscous solution which gels over time although there are no signs of any precipitation of drug"},
      {"measurement": "behaviour on dilution with aqueous diluting fluid", "setting": "[3]; [5]", "value": "immediately precipitated out"},
      {"measurement": "time the drug solution remained clear on dilution", "setting": "[3]; Example 7: Absolute ethanol 20-40% v/v, Tween 80 60-80% w/v, diluted with aqueous diluting fluid to 0.3-1.4 mg/ml", "value": "≤ 3", "unit": "h"},
      {"measurement": "behaviour on dilution with aqueous diluting fluid", "setting": "[3]; Example 8: Absolute ethanol 65% v/v, Tween 80 5% w/v, PEG 300 30% v/v, diluted to 0.08-0.4 mg/ml", "value": "remained clear"},
      {"measurement": "behaviour on dilution with aqueous diluting fluid", "setting": "[3]; Example 9: Absolute ethanol 35% v/v, Tween 80 15% w/v, PEG 300 50% v/v, diluted to 0.08 to 0.4 mg/ml", "value": "remained clear"},
      {"measurement": "behaviour on dilution with aqueous diluting fluid", "setting": "[3]; Example 9 composition, diluted outside the range 0.08 to 0.4 mg/ml", "value": "immediate precipitation"},
      {"measurement": "time the composition remained clear without any precipitation on dilution", "setting": "[3]; Example 16: DMA 20-50% v/v, PEG 300 20-40% v/v, Tween 80 5-30% w/v, diluted with aqueous diluting fluid to 0.1-10 mg/ml", "value": "more than 5 days"},
      {"measurement": "behaviour on dilution with an aqueous diluting fluid", "setting": "[3]; Examples 10 and 11 compositions, at a lower concentration of 0.012-2 mg/ml", "value": "remains clear"},
      {"measurement": "behaviour on dilution with aqueous diluting fluid", "setting": "[3]; Examples 12 and 13 compositions containing MYRJ 52, diluted to 0.1-1.0 mg/ml", "value": "precipitated out in a few hours"},
      {"measurement": "behaviour on dilution with the aqueous diluting fluid", "setting": "[3]; Examples 14 and 15 compositions, only at lower dilutions (0.001-1 mg/ml)", "value": "remained soluble"},
      {"measurement": "cytotoxicity", "setting": "[4]", "value": "melanoma-specific cytotoxic agent"},
      {"measurement": "tumor growth", "setting": "human melanomas; athymic mice carrying human melanomas", "value": "completely inhibited"},
      {"measurement": "toxicity", "setting": "human melanomas; mouse, in vivo", "value": "without toxicity"}
    ]}
  ]
}
